Laboratory results as given in US20210401987A1, “METHODS AND COMPOSITIONS FOR TREATING INFLAMMATORY AND FIBROTIC PULMONARY DISORDERS” (University of Houston System, priority 2020, published 2021).

Assays:
STAT3 = STAT3 (Homo sapiens, UniProt P40763); conditions: cited from earlier work
ERBB2 = conditions: cited from earlier work
[1] = system: human airway microvasculature endothelial cells; experiment: Endothelial cell activation assessed by expression of Vcam1 (CD106); assay type: cell-based; conditions: IL-13 challenge of human lung endothelial cells
From the text: Given the robust inflammatory response triggered by xenografts of COPD clone libraries, the inventors asked if this inflammatory activity was a function of one or more of the constituent clone types. Using pathway enrichment analysis algorithms for the gene expression profiles of the four clone types, the multiple inflammatory pathways highlighted in clones of Cluster 4 was striking including Antigen Presentation, Interferon Signaling, Graft-vs-Host responses, and Dendritic Cell Maturation among others, and their relative absence from clones of Clusters 1, 2, and 3 (FIG. 5A; FIG. 12A). The inventors tested media conditioned by clones of Clusters 1-4 for their ability to trigger phase I and II activation of human airway microvasculature endothelial cells, an essential step in leukocyte recruitment (Filippi, 2016). […] In this same assay media conditioned by Cluster 2 (GCM) or Cluster 3 (SCM) clones, respectively, yielded 4- and 10-fold inductions of VCAM1, and while media from Cluster 4 (iSCM) clones induced Vcam1 by 60-fold (FIG. 12B).

Chain of STAT3 (P40763 whole entry): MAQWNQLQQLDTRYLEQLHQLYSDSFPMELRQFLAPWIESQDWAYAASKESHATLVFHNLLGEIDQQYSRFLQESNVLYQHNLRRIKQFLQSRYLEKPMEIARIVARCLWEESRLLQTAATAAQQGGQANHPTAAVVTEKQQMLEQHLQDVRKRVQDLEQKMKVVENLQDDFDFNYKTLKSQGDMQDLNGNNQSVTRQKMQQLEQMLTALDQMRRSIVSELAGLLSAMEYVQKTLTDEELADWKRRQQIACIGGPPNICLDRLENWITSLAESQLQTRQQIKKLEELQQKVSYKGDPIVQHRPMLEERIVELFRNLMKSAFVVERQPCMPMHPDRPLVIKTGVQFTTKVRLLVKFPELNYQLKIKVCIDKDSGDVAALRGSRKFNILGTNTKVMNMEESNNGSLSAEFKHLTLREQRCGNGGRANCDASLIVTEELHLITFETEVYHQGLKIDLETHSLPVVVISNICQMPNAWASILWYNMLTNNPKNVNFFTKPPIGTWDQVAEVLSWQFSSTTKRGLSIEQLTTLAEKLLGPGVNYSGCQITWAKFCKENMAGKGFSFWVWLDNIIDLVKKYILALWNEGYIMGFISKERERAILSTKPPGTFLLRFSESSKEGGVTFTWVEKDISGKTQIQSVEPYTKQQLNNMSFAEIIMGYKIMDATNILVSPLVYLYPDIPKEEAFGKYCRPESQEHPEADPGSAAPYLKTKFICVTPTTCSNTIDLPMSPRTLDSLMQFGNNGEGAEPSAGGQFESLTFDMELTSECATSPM

For O=[N+]([O-])c1ccc2c(c1)S(=O)(=O)C=C2 [Stattic], the IC50 (STAT3; cell-free assays, read-out: IC50 of STAT3 activation and nuclear translocation) is given as 5.1 µM and the “selectivity over STAT1” value (STAT3) is given as “highly selectivity over STAT1”.
In the case of C=CC(=O)Nc1cccc(Sc2nc(Nc3ccc(N4CCN(C)CC4)cc3)ncc2Cl)c1 [WZ8040], the “inhibition of ERBB2 phosphorylation” value (ERBB2) is given as “does not inhibit”.
For IL-13: Human IL-13 Recombinant Protein, the “induction of Vcam1” value [1] was 30 fold.
